Assay results taken from patent US4404230A, “4-Hydroxy-1,2-Benzisothiazol-3(2H)-one-1,1-dioxides and salts thereof” (priority 1980, dated 1983).

Legend:
Rat = assay: Test for acute toxicity, rat; details: for Animals which died: 6 animals
Experimental: (§1) The acute toxicity was determined after oral administration of substance B to male and female mice, rats and dogs. The substance was administered to mice and rats in the form of a suspension in tylose and to dogs in the form of a solution in water.

mice [1] = assay: Ability of mice to hold themselves in rotating cylinders (muscle relaxing and/or ataxic effect); type: in vivo, Chbb:NMRI-mice; details: 400 mg/kg p.o.; for Animals which fell out: N = 10
Experimental: In analogy to the method described by Young and Lewis [Science 105, 368 (1947)], 10 female Chbb:NMRI-mice (SPF) having a body weight of 20-26 gm were tested to determine whether they were able to hold themselves in rotating cylinders after oral administration of 400 mg/kg of substance in aqua dist. The measurements were carried out 30-60, 90-120, 210-240 and 270-300 minutes after administration.

Salmonella typhimurium = assay: Prior serial dilution test for inhibition of microorganism growth (AMES-system); type: cell-based; details: highest dosage used
Experimental: (§2) Compound B was tested at concentrations of 0.25, 2.5, 5 and 10 mg/plate.

taste testers = assay: Determination of the relative sweetening power in comparison to saccharose; type: in vivo; details: compared with 3% aqueous solution of saccharose
From the text: The relative sweetening power (often also defined as degree of sweetness) of sweetening agents in comparison with saccharose (cane sugar) varies considerably with concentration. […] Therefore, for the determination of the relative sweetening power of the test compounds a 3% aqueous solution of saccharose was always used for comparison.

[2] = test system: Pseudomonas aeruginosa Hbg.; assay: Bacteriostasis, agar diffusion test; type: cell-based; details: 16,000 μg/ml
Experimental: (§3) Substance B was tested with regard to its bacteria- and fungi-inhibiting effect by the serial dilution test and agar diffusion test.

[3] = test system: Escherichia coli ATCC 9637; assay: Bacteriostasis, agar diffusion test; type: cell-based; details: 16,000 μg/ml
Experimental: as §3

Streptococcus Aronson = assay: Bacteriostasis, agar diffusion test; type: cell-based; details: 16,000 μg/ml
Experimental: as §3

Sc. pyogenes ATCC 8688 = assay: Bacteriostasis, agar diffusion test; type: cell-based; details: 16,000 μg/ml
Experimental: as §3

[4] = test system: Staphylococcus aureus SG 511; assay: Bacteriostasis, agar diffusion test; type: cell-based; details: 16,000 μg/ml
Experimental: as §3

[5] = test system: Salmonella typhimurium TA 1538; assay: Test for mutagenic effects (AMES-system); type: cell-based
Experimental: (§4) Compound B was tested according to the AMES-system [Mutation Research 31, 347-364 (1975)] for mutagenic properties. In order to show the whole spectrum of induced molecular DNA-damage (base substitutions, frame-shift mutations, deletions) the auxotrophic bacterial strains Salmonella typhimurium TA 98, TA 100, TA 1535, TA 1537 and TA 1538 were used as genetic indicators.
(§5) The tests for all microorganisms were carried out such that the effect of the test compound on a microsomal enzyme system together with the corresponding co-factors could be tested, and furthermore to determine the effect on enzyme induction. The tests were performed without an activating system and in the presence of an activating system. For the in-vitro-activation S-9 supernatants (fractions of the endoplasmatic reticulum) of normal, i.e. not pretreated rats and of rats induced by aroclor 1254 (500 mg/kg) wer used. For the S-9 induced fraction, 3 different concentrations were tested.
as §2

[6] = test system: Salmonella typhimurium TA 1535; assay: Test for mutagenic effects (AMES-system); type: cell-based
Experimental: as §4, §5, §2

[7] = test system: Salmonella typhimurium TA 1537; assay: Test for mutagenic effects (AMES-system); type: cell-based
Experimental: as §4, §5, §2

[8] = test system: Salmonella typhimurium TA 98; assay: Test for mutagenic effects (AMES-system); type: cell-based
Experimental: as §4, §5, §2

[9] = test system: Salmonella typhimurium TA 100; assay: Test for mutagenic effects (AMES-system); type: cell-based
Experimental: as §4, §5, §2

[10] = Stability of the solid substance in daylight and at 60° C.; type: physicochemical; details: daylight and 60° C., absence and presence of light, 4 weeks
Experimental: For the stability test, substance B at a concentration of 1% was dissolved in 0.1 N hydrochloric acid and kept at room temperature for 27 days. […] The solid substance was furthermore tested in daylight and at 60° C. in the absence and in the presence of light for 4 weeks.

mice [11] = assay: Effect on maximum electroshock convulsions in mice; type: in vivo, Chbb:NMRI-mice; details: 200 mg/kg p.o.; for Number of protected animals: N = 10
Experimental: According to Swinyard, Brown and Goodman [J. Pharmacol. exp. Ther. 106, 319 (1952)], 200 mg/kg of substance B in aqua dist. solution were administered perorally to 10 male Chbb:NMRI-mice (SPF). After 30, 150 and 300 minutes tonic extensor spasms were induced by alternating current via head-electrodes (50 mA, 50 Hz, 2 sec. duration). Tonic extensor spasms of the extremities cannot be observed after treatment with substances having an anticonvulsive activity.

rats = assay: Ulcerogenic effect in rats; type: in vivo, Chbb:THOM-rats; details: 200 mg/kg p.o.
Experimental: 200 mg/kg of substance B in 1% tylose suspension were administered perorally to 10 male and female (1:1) Chbb:THOM-rats (SPF) having an approximate body weight of 200 gm. A control group received only the suspension agent. After 4 hours all animals were killed, the stomach was dissected and inspected with regard to lesions of the mucosa.

[12] = test system: Salmonella typhimurium TA 98, TA 100, TA 1535, TA 1537 and TA 1538; assay: Test for mutagenic effects (AMES-system), all strains together; type: cell-based
Experimental: as §4, §5, §2

beagles = assay: Test for subacute toxicity in the dog; details: in vivo
Experimental: The test was carried out in each 3 male and 3 female beagles. Over a period of 5 weeks 750 mg/kg of substance B were administered orally.
After the test period of 5 weeks the animals were killed and the same organs as above were taken for histological examination.

Mouse = assay: Test for acute toxicity, mouse; details: for Animals which died: 10 animals
Experimental: as §1

[13] = 10 g/kg oral, during the observation time
[14] = 0.25, 2.5, 5 and 10 mg/plate, with and without activating system

For `O=C1NS(=O)(=O)c2cccc(O)c21.[Na]`, the Animals which died (Rat; 10 g/kg oral, 1 day) was 0, the Animals which died (Rat; 10 g/kg oral, 7 days) was 0 and the Animals which died (Rat; 10 g/kg oral, 14 days) was 0. For the same compound, the “deaths (in words)” value (Rat; [13]) was “no animals died”, the behavior (Rat; rat, in vivo, po) was “completely normal behavior” and the toxic symptoms (Rat; rat, in vivo, po) was “no toxic symptoms could be observed”. For the same compound, the “effect on holding ability of mice (in words)” value (mice [1]) was “does not affect the holding ability of mice”, the “muscle relaxing or coordination inhibiting effect (in words)” value (mice [1]) was “no muscle relaxing or coordination inhibiting effect” and the “Animals which fell out” value (mice [1]; 30-60 min) was 2. For the same compound, the “Animals which fell out” value (mice [1]; 90-120 min) was 2, the “Animals which fell out” value (mice [1]; 210-240 min) was 1 and the “Animals which fell out” value (mice [1]; 270-300 min) was 0. For the same compound, the “inhibition of the microorganism growth” value (Salmonella typhimurium) was “did not show an inhibition of the microorganism growth”, the “Relative sweetening power (Saccharose = 1)” value (taste testers) was 210 and the inhibiting effect [2] was “did not show any inhibiting effect”. The inhibiting effect [3] was “did not show any inhibiting effect”, the inhibiting effect (Streptococcus Aronson) was “did not show any inhibiting effect” and the inhibiting effect (Sc. pyogenes ATCC 8688) was “did not show any inhibiting effect”. The inhibiting effect [4] was “did not show any inhibiting effect”, the spontaneous mutation rate [5, 14] was “did not lead to an increase in the spontaneous mutation rate” and the frame-shift mutations ([5]; TA 1538) was “does not induce base substitutions (S. typhimurium TA 1535, TA 100) or frame-shift mutations”. For the same compound, the spontaneous mutation rate [6, 14] was “did not lead to an increase in the spontaneous mutation rate”, the base substitutions ([6]; TA 1535) was “does not induce base substitutions” and the spontaneous mutation rate [7, 14] was “did not lead to an increase in the spontaneous mutation rate”. The frame-shift mutations ([7]; TA 1537) was “does not induce base substitutions (S. typhimurium TA 1535, TA 100) or frame-shift mutations”, the spontaneous mutation rate [8, 14] was “did not lead to an increase in the spontaneous mutation rate” and the frame-shift mutations ([8]; TA 98) was “does not induce base substitutions (S. typhimurium TA 1535, TA 100) or frame-shift mutations”. The spontaneous mutation rate [9, 14] was “did not lead to an increase in the spontaneous mutation rate”, the base substitutions ([9]; TA 100) was “does not induce base substitutions” and the “stability of solid substance” value [10] was “No changes could be detected either”. The “anticonvulsive activity (in words)” value (mice [11]) was “does not show any anticonvulsive activity”, the “Number of protected animals” value (mice [11]; 30 min) was 0 and the “Number of protected animals” value (mice [11]; 150 min) was 0. The “Number of protected animals” value (mice [11]; 300 min) was 0, the “ulcerogenic effect (in words)” value (rats) was “does not show any ulcerogenic effect in rats” and the “Animals having stomach lesions” value (rats; 4 hours, N = 10) was 0. The “effect on enzyme induction and the activating fraction upon the reversion rate” value [12] was “No effect on enzyme induction and the activating fraction upon the reversion rate was detected”, the “mutagenicity, overall” value [12] was “not mutagenic” and the “colonies counted on the test plates” value ([12]; each test strain) was “showed the normal spontaneous range for each test strain”. The behavior (beagles) was “did not show any abnormal behavior”, the “histological examination of organs” value (beagles) was “No changes could be observed” and the spontaneous deaths (beagles) was “Spontaneous deaths could not be observed”. The Animals which died (Mouse; 10 g/kg oral, 1 day) was 0, the Animals which died (Mouse; 10 g/kg oral, 7 days) was 0 and the Animals which died (Mouse; 10 g/kg oral, 14 days) was 0. The “deaths (in words)” value (Mouse; [13]) was “no animals died”, the behavior (Mouse; mouse, in vivo, po) was “completely normal behavior” and the toxic symptoms (Mouse; mouse, in vivo, po) was “no toxic symptoms could be observed”.
